Series [1] concerns EAE. Conditions: single 250 μg dose in CFA, pertussis toxin i.v. day 0 and 2. As to the method:
Similarly, mice are injected with a single, 250 μg dose of MBP (87-99) or A97 in CFA containing 500 μg of heat killed Mycobacterium. Pertussis toxin (400 ng/mouse) is injected i.v. at day 0 and day 2. Mice are assessed for disease symptoms as described above.

Series [2] concerns Murine MBP-specific T cell clones (AG.1H8). Kind of series: Proliferation of murine MBP-specific T cell clone AG.1H8. Particulars: 72 hr, [3H]-thymidine. It is filed as cell-based. As to the method:
Murine MBP-specific T cell clones were also used as targets in proliferation assays. T cell clones (30,000 cells) were cultured for 72 hr in the presence of MBP 87-99, A97, or PLP 139-151 (myelin proteolipid protein), and irradiated, syngeneic spleen cells. For 18 hr prior to harvesting, [^3 H]-thymidine was added to each culture. Incorporated thymidine was determined.

Series [3] relates to IL-2 stimulated T cell line reactive to MBP 87-99. Kind of series: Cytokine production by MBP 87-99 reactive T cell line (ELISA). It is filed as cell-based, SJL. Conditions: 48 hr; 10 μM PLP 139-151, 3 μM A97 or 3 μM MBP 87-99. As to the method:
Other suitable assays of antigen-specific T cell responses include induction of cytokine production, phosphorylation of the CD3 zeta chain, and induction of apoptosis. Briefly, for assaying cytokine production, an IL-2-stimulated T cell line, which is reactive to MBP […], is incubated with IL-2 and various MBP peptide analogues. Cytokine release is measured at 48 hr. Cytokines are measured by ELISA, or alternatively, RNA expression of cytokines may be measured by Northern blot, RNase probe protection or other standard hybridization methods. Cytokines to be assayed include IL-1 through IL-14, γ-IFN, TNF, and the like. Phosphorylation of the CD3 zeta chain is assayed in MBP 87-89-specific T cells. Briefly, cells are co-incubated with antigen-presenting cells, such as T-depleted splenocytes, which have been pulsed with MBP 87-99 or peptide analogue. Cells are then lysed, and the zeta chain is immunoprecipitated and electrophoresed on an SDS-PAGE gel. The […] may be detected with an antibody. In a third assay, apoptosis may be induced in an antigen-specific manner. For this assay, an MBP stimulated T cell line is incubated with IL-2 and various peptides. Cell loss is measured by flow cytometry or other standard method.
Cytokine production by an IL-2 stimulated T cell line, which is reactive to MBP 87-99, is measured in response to various peptides and peptide analogues. The activated T cell line is co-cultured for 48 hr with a 10-fold excess of irradiated (3000 Rads) SJL T cell-depleted spleen cells, 50 IU/ml human rIL-2 and 10 μM PLP 139-151, 3 μM A97, or 3 μM MBP 87-99. Cytokine release is measured by ELISA.

Series [4] has as its system lymph node cells from MBP 87-99 immunized rats. Kind of series: Antigen-specific lymph node cell proliferation, MBP 87-99 immunized rats. The format is cell-based, Lewis rats. Conditions: FIG. 3B, separate experiment. As to the method:
Within the second assay, draining lymph node cells from Lewis rats or SJL mice injected with MBP (87-99) may be used. Preferably, this assay is used in combination with the proliferation assay using T cell lines. Briefly, Lewis rats or SJL mice are injected subcutaneously with MBP (87-99) peptide in complete Freund's adjuvant. Nine to ten days later, draining lymph node cells are isolated and single-cell suspensions are prepared. Lymph node cells are incubated with various concentrations of peptide analogues for three days in a humidified air chamber containing 6.5% CO2. After incubation, the cultures are pulsed with 1-2 μCi of [^3 H]-thymidine for 12-18 hours. Cultures are harvested on fiberglass filters and counted in a scintillation counter. Mean CPM and the standard error of the mean are calculated from data determined in triplicate cultures. […] Peptide analogues which are suitable for further screening will preferably, at concentrations of at least 10 μM, cause stimulation to a level of at least 25% of the native peptide.
Female Lewis rates, approximately six weeks old, are purchased from Harlan Sprague, Indianapolis, Ind. MBP peptides are dissolved in phosphate-buffered saline (PBS) and emulsified with an equal volume of complete Freund's adjuvant (Difco Laboratories, Inc., Detroit, Mich.) supplemented with 2 mg/ml of heat-killed Mycobacterium tuberculosis H37Ra in oil (Difco). […]

In series [5] the test system is EAE. Particulars: rat, in vivo.
Series [6] deals with multiple sclerosis. Particulars: in vivo; cited from earlier work.

Where a SMILES comes first, the peptide text is derived from it. [ ]: non-standard residue; d: D form.

Consider `CC[C@H](C)[C@H](NC(=O)[C@H](CC(N)=O)NC(=O)[C@H](CCCCN)NC(=O)[C@H](Cc1ccccc1)NC(=O)[C@H](Cc1ccccc1)NC(=O)[C@H](Cc1c[nH]cn1)NC(=O)[C@@H](NC(=O)[C@@H](N)C(C)C)C(C)C)C(=O)N[C@H](C(=O)N[C@H](C(=O)N1CCC[C@H]1C(=O)N[C@@H](C)C(=O)N[C@H](C(=O)N1CCC[C@H]1C(=O)O)[C@@H](C)O)[C@@H](C)O)C(C)C` [A97] (H-VVHFFKNIVTPATP-OH), for which, in series [1], the animals developing disease was 5/5. In addition, in series [1] (FIG. 11), the “mean clinical score following injection” value is “increased mean clinical score”.
Consider “PLP 139-151: myelin proteolipid protein peptide 139-151, control peptide (CHCLGKWLGHPDK; UniProt P60202 139-151, looked up, fragment)”, for which the Proliferation in series [2] (10 μM peptide) is 0.15 ± 0.03 CPM × 10^-3. Besides, the Proliferation in series [2] (50 μM peptide) was determined as 0.26 ± 0.12 CPM × 10^-3. For the same molecule, in series [3], the IL-2 release amounted to 1646 pg/mL, the IL-4 release stood at 2197 pg/mL and the γ-IFN release amounted to 3073 pg/mL.
On to `CC[C@H](C)[C@H](NC(=O)[C@@H]1CCCN1C(=O)[C@@H](NC(=O)[C@@H](N)Cc1ccccc1)C(C)C)C(=O)N[C@@H](Cc1ccccc1)C(=O)N[C@H](C(=O)N[C@@H](Cc1ccc(O)cc1)C(=O)NCC(=O)N[C@@H](CCC(=O)O)C(=O)N[C@@H](CC(C)C)C(=O)N[C@@H](CCC(N)=O)C(=O)N[C@@H](CCCNC(=N)N)C(=O)N[C@@H](CCSC)C(=O)N[C@@H](CCC(N)=O)C(=O)N[C@@H](CCC(=O)O)C(=O)N[C@@H](CCCCN)C(=O)N[C@@H](CCC(=O)O)C(=O)N[C@@H](CCCNC(=N)N)C(=O)N[C@@H](CC(N)=O)C(=O)N[C@@H](CCCCN)C(=O)NCC(=O)N[C@@H](CCC(N)=O)C(=O)O)[C@@H](C)O` [motlin], for which the “proliferative response of lymph node cells” value in series [4] is given as “not”.
Take `CC[C@H](C)[C@H](NC(=O)[C@H](CC(N)=O)NC(=O)[C@H](CCCCN)NC(=O)[C@H](Cc1ccccc1)NC(=O)[C@H](Cc1ccccc1)NC(=O)[C@@H](Cc1c[nH]cn1)NC(=O)[C@@H](NC(=O)[C@@H](N)C(C)C)C(C)C)C(=O)N[C@H](C(=O)N[C@H](C(=O)N1CCC[C@H]1C(=O)N[C@@H](CCCNC(=N)N)C(=O)N[C@H](C(=O)N1CCC[C@H]1C(=O)O)[C@@H](C)O)[C@@H](C)O)C(C)C` [h88] (H-VV[dH]FFKNIVTPRTP-OH): in series [5], the “induction of EAE” value is listed as “does not induce EAE in rats”.

B1: IFN-γ: cytokine administered in a pilot study in MS (protein, UniProt P01579 24-161, looked up)
Interferon gamma: QDPYVKEAENLKKYFNAGHSDVADNGTLFLGILKNWKEESDRKIMQSQIVSFYFKLFKNFKDDQSIQKSVETIKEDMNVKFFNSNKKKRDDFEKLTNYSVTDLNVQRKAIHELIQVMAELSPAAKTGKRKRSQMLFRG
On to B1, for which the “patients with a clinical exacerbation” value in series [6] is recorded as 7 of 18.

Values taken from patent US5948764A, “Methods for treatment of multiple sclerosis utilizing peptide analogues of human myelin basic protein” (Neurocrine Biosciences, Inc., priority 1997, dated 1999).
